Results from US10034860B2, “Estrogen receptor modulator for the treatment of locally advanced or metastatic estrogen receptor positive breast cancer” (Genentech, Inc., priority 2013, dated 2018).

Key:
breast cancer cell lines = assay: breast tumor cell proliferation; format: cell-based
oral bioavailability = conditions: in vivo
[1] = tested on: xenograft models of ER+ breast cancer; assay: tamoxifen-sensitive and tamoxifen-resistant xenograft models of ER+ breast cancer; format: in vivo
[2] = tested on: advanced or metastatic ER+ (HER2−) breast cancer; assay: Phase I clinical trial: safety and clinical benefit; format: in vivo
Text: The MTD and/or RP2D will be defined as the dose with ≤1 out of 6 patients with Dose Limiting Toxicity (DLT). Dose Limiting Toxicity (DLT) Definition: Any Grade ≥3 non-hematology toxicity (excluding alopecia); Any Grade ≥3 hematology toxicity >7 days; Any Grade toxicity that leads to study drug interruption >7 days.
Disease assessments will be performed. Imaging studies will include a CT scan of the chest, abdomen, and pelvis, plus a bone scan. Radiographic confirmation of objective tumor response or disease progression will be based on RECIST v1.1 (Eisenhauer, 2009). For new bone lesions detected on bone scans, a second imaging modality (e.g., CT or MRI) will be required to confirm progression.
(§1) A preliminary analysis of the first 41 patients enrolled in the Phase I study described in Example 1 was conducted. 41 patients were enrolled in the Phase I portion of the study, across 9 different dose escalation cohorts. The patients were postmenopausal women with advanced or metastatic breast cancer that had previously relapsed or progressed following prior therapy with the aromatase inhibitors anastrozole, exemestane, and letrozole (90%), chemotherapy (68%), including capecitabine (27%), tamoxifen (54%), fulvestrant (41%), everolimus (19%), and also other investigational agents (17%).

[3] = set-up: species or system postmenopausal women; conditions: in vivo
Method: If the safety and PK profile seen in the Phase I (dose escalation) portion of the study are deemed favorable to justify further continuation of the study, dose escalation will be followed by an expansion cohort to further confirm safety and tolerability and assess preliminary evidence of antitumor activity (Phase IIa).
as §1

[4] = tested on: ER and Ki-67 levels in tumor specimens; assay: Phase I clinical trial: tumor biopsies, ER and Ki-67 levels; set-up: species or system postmenopausal women; conditions: in vivo
Text: Pre- and post-treatment tumor biopsies (soft tissue or visceral lesions) will be collected to evaluate: • Tumor Histology; tumor vs. stroma, vs fibrotic tissue • ERα and PR protein levels by immunohistochemistry or immunofluorescence • Proliferative Index (Ki67) • ER target gene modulation: Examples of ER target genes thay maybe monitored include, but are not limited to: AGR2, AREG, C3, CCND1, CXCL12, ERBB2, GREB1, IL6, IRS1, PDZK1, PGR, SEMA3B, TFF1, TFF2, TFF3, TOP2A, WISP2. Circulating Tumor DNA (ctDNA)
as §1

CC/C(=C(/c1ccc(/C=C/C(=O)O)cc1)c1ccc2[nH]ncc2c1)c1ccc(F)cc1Cl [(E)-3-(4-((E)-2-(2-chloro-4-fluorophenyl)-1-(1H-indazol-5-yl)but-1-en-1-yl)phenyl)acrylic acid]
breast tumor cell proliferation (breast cancer cell lines): inhibition of breast tumor cell proliferation | oral bioavailability (oral bioavailability): good oral bioavailability | tolerability ([1]; all doses, xenograft models): very well tolerated | efficacious dose range ([1]; all xenograft models): 10 to 100 mg/kg/day | anti-tumor activity ([1]; tamoxifen-sensitive and tamoxifen-resistant xenograft models): dose dependent anti-tumor activity | safety and tolerability ([2]; 41 patients, progressed on a median of 4 prior treatments): safe and well tolerated | preliminary overall clinical benefit rate ([2]; all patients, preliminary analysis): 42% | preliminary clinical benefit rate ([2]; patients previously treated with fulvestrant): 35% | dose at which target plasma concentrations were achieved ([3]; female, human): ≥ 600 mg QD | pharmacokinetic profile ([3]; po): linear and dose proportional | ER and Ki-67 levels in tumor specimens [4]: reduced

C[C@]12CC[C@@H]3c4ccc(O)cc4C[C@@H](CCCCCCCCC[S+]([O-])CCCC(F)(F)C(F)(F)F)[C@H]3[C@@H]1CC[C@@H]2O (stereo partly drawn) [fulvestrant, reference compound]
efficacy compared with the acrylic acid compound ([1]; tamoxifen-resistant xenograft models): less efficacious
